From article PMC10791743, “Selective CK1α degraders exert antiproliferative activity against a broad range of human cancer cell lines” (Nature Communications, 2024)
Several values for one entry are separate records, joined by “and”; a condition that tells them apart may be missing. Equal entries are not always repeated.

What was measured:
MOLM-13 cells = test: MOLM-13 cell viability assay (CTG, 72 h); type: cell-based, human; design: key to Cell viability in MOLM-13 cells / cell viability, dose-response replicate values: % viability = 100 − % activity, normalized to controls
Protocol: The primary screen was performed in 384-well format using the CellTiter Glo (CTG) luminescent cell viability assay (Promega) as previously described. […] After overnight incubation at 37 °C in a humidified 5% CO2 incubator, cells were treated with compounds in dose–response format using a Pintool on a Biomek FX^P Laboratory Automation Workstation (Beckman Coulter). […] Luminescence signal was measured using an EnVision plate reader (PerkinElmer). […]
number per well and incubated overnight at 37 °C in a humidified 5 % CO2 incubator. Compounds were transferred to the assay plate from a dose-response plate using a Labcyte Echo 650 Acoustic Liquid Handler (Beckman Coulter , USA). […]
using Promega’s CellTiter-Glo reagent according to the manufacturer’s recommendation.
Luminescence was measured on the Envision plate reader (PerkinElmer, USA). Raw luminescence relative light unit (RLU) values for each compound at each concentration were normalized to obtain % activity using the following equation (1): 100 × [(mean(negctrl) – compound)/(mean (negctrl) – mean (posctrl))]. The % activity was converted to % viability using the following equation (2):
(100 – % activity), and then pooled from replicate experiments prior to fitting. Here, negctrl and posctrl refer to the negative (DMSO) and positive controls (staurosporine) on each plate. Dose-response curves were fit to the Hill equation using the GraphPad Prism (version 10). […]

CRBN−/− MOLM-13 cells = test: Annexin-V staining for apoptosis, CRBN−/− MOLM-13; type: cell-based, human; conditions: for Effect on viability of CRBN−/− cells (annexin-V): 1 μM; for Late apoptosis, flow cytometry / Early apoptosis, flow cytometry: CRBN-/-; for total apoptosis, flow cytometry: MOLM-13 CRBN-/-
Protocol: Wild type and CRBN^−/− MOLM-13 cells were grown in 12-well plates (TPP, Techno Plastic Products AG) with 500,000 cells per well in 2 ml total media volume. Cells were treated with 1 μl/ml DMSO or 1 μM compound in triplicate, and incubated for 24 or 72 h at 37 °C. To prepare samples, this buffer was used: 10 mM HEPES, 0.14 M NaCl, 2.5 mM CaCl2 pH 7.4, 2% v/v FBS in UltraPure water (Invitrogen). After incubation, samples were collected in 5-ml tubes for flow cytometry (Falcon). Single-stain controls consisted of ~150 μl of multiple samples combined. Wells were washed with 1 ml of buffer that was added to the corresponding sample tube. Cells were centrifuged at 500×g for 5 min at 4 °C to form a pellet. Supernatant was decanted and cells were washed again with 3 ml of buffer, then centrifuged. After decanting the supernatant, 3 μl of APC-conjugated anti-Annexin-V antibody (BioLegend) was added to each tube in the residual buffer left behind. Samples were mixed by vortex and incubated at room temperature in the dark for 20 min. Samples were then washed and centrifuged a final time, decanting the supernatant and blotting the tubes to remove residual buffer. 50 μl of buffer with DAPI was added to all appropriate samples and mixed, then analyzed by flow cytometry.
Supplementary Fig. 13: Gating for Annexin V flow cytometry analysis. Total cells were gated to remove cell debris, followed by single cell gating on the FSC-A/FSC-H diagonal. Within the single […]
Live cells are negative for both fluorescent markers, DAPI positive/APC negative cells are necrotic, APC positive/DAPI negative cells are still alive but in the early stages of apoptosis, and double positive cells are dead via apoptosis. Percentages of early and late apoptosis were plotted in supplementary figures 4 and 5.
(1 picture or pasted object on this page, not shown here)

CK1α = CK1α (Homo sapiens, UniProt P48729+Q96SW2); test: CK1α HiBiT live-cell kinetic degradation assay (HEK293 cells); type: cell-based; design: engineered by CRISPR/Cas9 to express endogenous CK1α (HEK293 cells) with a HiBiT tag; conditions: for Dmax at 0.111 µM: CK1, 0.111 uM; for Dmax at 0.111 µM / Dmax at 0.333 µM / Dmax at 1 µM / Dmax at 3 µM / Dmax at 10 µM: read-out: CK1a Percent Maximum Degradation; for Dmax at 0.333 µM: CK1, 0.333 uM; for Dmax at 1 µM: CK1, 1 uM; for Dmax at 3 µM: CK1, 3 uM; for Dmax at 10 µM: CK1, 10 uM; for DC50: HEK293, at 4 h
Excerpt: To measure cellular protein levels, we used cell lines that have been engineered by CRISPR/Cas9 to express endogenous CK1α (HEK293 cells) or IKZF1 (Jurkat cells) with a HiBiT tag, which when coupled with LgBiT expression forms NanoBiT, a bioluminescent protein that can be used for kinetic studies of protein degradation. […] Cell viability was also monitored with CellTiter Glo 2.0 (Promega) at the completion of the experiment to ensure that loss of protein was not a consequence of a loss of cell viability.
IKZF1-HiBiT Jurkat LgBiT stable cells were seeded at 60,000 cells/well in 50% growth media/50% CO2 independent medium supplemented with 10% FBS and 1× Endurazine substrate. […] A dose–response curve was generated by performing 3-fold dilutions of each compound including a DMSO-only control in growth media. For live cell kinetic degradation assays, diluted compounds were added to CK1α and β-catenin plates and placed in a GloMax Discover (Promega, Cat. #GM3000) preheated to 37 °C or added to IKZF1 plates and placed in a CLARIOstar Plus (BMG LABTECH) preheated to 37 °C.
Relative protein level was determined based on normalization to the DMSO control and reported at Fractional RLUs. Degradation rate and degradation maximums were calculated from Fractional RLUs as previously described[38] using GraphPad Prism software. β-catenin stabilization time of onset for each concentration curve was calculated in GraphPad Prism by fitting an unconstrained plateau followed by one phase association model using the equation below (Y = IF(X < X0, Y0,Y0+(Plateau−Y0)*(1−exp(−K*(X−X0))))). The parameter, X0 was used as time of onset for each compound concentration.

[1] = SI_Fig 4c, DMSO 10.2, 11.1, 11.2

Sequence of CK1α (P48729 whole entry): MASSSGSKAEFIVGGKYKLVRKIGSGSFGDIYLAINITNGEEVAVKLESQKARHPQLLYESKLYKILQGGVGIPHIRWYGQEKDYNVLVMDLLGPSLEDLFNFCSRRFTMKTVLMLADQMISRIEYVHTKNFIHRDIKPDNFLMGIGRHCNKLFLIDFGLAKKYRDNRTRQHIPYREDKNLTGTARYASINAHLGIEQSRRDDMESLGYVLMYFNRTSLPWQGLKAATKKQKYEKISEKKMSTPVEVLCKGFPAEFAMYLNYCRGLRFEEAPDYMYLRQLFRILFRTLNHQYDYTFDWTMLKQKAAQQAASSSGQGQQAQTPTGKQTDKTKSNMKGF
Sequence of CK1α (Q96SW2 whole entry): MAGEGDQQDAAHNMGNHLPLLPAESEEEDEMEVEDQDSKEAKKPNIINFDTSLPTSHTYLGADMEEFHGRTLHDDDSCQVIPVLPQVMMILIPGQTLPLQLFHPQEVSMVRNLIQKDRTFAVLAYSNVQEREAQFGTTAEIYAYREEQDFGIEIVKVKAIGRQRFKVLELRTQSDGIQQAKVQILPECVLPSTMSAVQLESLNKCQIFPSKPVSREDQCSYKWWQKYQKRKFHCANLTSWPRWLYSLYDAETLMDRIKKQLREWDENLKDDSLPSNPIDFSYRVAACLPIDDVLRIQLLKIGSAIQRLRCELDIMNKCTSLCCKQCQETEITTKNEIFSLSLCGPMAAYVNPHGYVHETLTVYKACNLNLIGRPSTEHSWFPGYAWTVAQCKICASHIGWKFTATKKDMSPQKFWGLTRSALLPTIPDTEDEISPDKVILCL
Sequence of CK1α (Q16531 whole entry partner): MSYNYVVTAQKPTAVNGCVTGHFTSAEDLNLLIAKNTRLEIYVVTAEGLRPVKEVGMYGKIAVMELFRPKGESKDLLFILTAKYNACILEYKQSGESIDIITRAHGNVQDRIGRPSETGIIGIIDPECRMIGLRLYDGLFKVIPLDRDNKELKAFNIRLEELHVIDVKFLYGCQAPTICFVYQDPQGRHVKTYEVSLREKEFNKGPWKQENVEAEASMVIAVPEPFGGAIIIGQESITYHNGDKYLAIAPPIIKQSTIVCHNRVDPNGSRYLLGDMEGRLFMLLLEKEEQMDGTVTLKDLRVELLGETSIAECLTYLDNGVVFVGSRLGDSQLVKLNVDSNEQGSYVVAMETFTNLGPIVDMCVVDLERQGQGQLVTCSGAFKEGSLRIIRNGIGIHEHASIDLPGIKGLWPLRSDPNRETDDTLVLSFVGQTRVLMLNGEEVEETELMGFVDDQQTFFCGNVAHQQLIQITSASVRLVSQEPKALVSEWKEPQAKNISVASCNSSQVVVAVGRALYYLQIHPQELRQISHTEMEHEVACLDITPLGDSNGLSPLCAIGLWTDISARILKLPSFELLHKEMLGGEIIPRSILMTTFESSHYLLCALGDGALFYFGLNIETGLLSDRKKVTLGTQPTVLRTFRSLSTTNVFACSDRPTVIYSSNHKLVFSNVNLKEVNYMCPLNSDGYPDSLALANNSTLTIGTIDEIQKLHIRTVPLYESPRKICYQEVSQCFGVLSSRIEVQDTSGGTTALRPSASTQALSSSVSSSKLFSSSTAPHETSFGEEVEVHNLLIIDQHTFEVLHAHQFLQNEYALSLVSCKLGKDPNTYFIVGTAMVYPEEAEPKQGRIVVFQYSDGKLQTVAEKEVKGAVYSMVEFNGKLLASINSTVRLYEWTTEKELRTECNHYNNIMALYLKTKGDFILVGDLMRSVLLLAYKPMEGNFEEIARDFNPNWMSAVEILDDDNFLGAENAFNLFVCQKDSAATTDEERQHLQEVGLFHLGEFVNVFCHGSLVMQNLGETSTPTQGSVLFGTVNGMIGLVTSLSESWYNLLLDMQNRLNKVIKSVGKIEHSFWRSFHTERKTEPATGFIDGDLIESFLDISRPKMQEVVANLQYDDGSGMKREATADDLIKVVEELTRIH

Cc1cccc(C(=O)Nc2ccc3c(c2)CN(C2CCC(=O)NC2=O)C3=O)c1 (stereo not drawn) [SJ0040]
Cell viability in MOLM-13 cells (MOLM-13 cells; SJ0040 series, Conc 0.000596098): 72.251 and 62.2023 and 81.3879
Cell viability in MOLM-13 cells (MOLM-13 cells; SJ0040 series, Conc 0.0017883): 82.0109 and 75.8813 and 72.6272
Cell viability in MOLM-13 cells (MOLM-13 cells; SJ0040 series, Conc 0.00536488): 61.7374 and 60.0676 and 62.6116
Cell viability in MOLM-13 cells (MOLM-13 cells; SJ0040 series, Conc 0.0160947): 47.3097 and 40.7507 and 48.8062
Cell viability in MOLM-13 cells (MOLM-13 cells; SJ0040 series, Conc 0.048284): 27.7074 and 26.3493 and 30.1451
Cell viability in MOLM-13 cells (MOLM-13 cells; SJ0040 series, Conc 0.144852): 14.8484 and 15.2529 and 14.8047
Cell viability in MOLM-13 cells (MOLM-13 cells; SJ0040 series, Conc 0.434556): 9.851 and 9.013 and 9.549
Cell viability in MOLM-13 cells (MOLM-13 cells; SJ0040 series, Conc 1.30367): 6.737 and 6.253 and 6.807
Cell viability in MOLM-13 cells (MOLM-13 cells; SJ0040 series, Conc 3.911): 4.756 and 5.128 and 7.933
Effect on viability of CRBN−/− cells (annexin-V) (CRBN−/− MOLM-13 cells): no effect on the viability
Late apoptosis, flow cytometry (CRBN−/− MOLM-13 cells; SI_Fig 4b, DMSO 3.1, 3.5, 3.3): 3.1 and 2.5 and 2.8
Early apoptosis, flow cytometry (CRBN−/− MOLM-13 cells; SI_Fig 4b, DMSO 7.1, 7.5, 7.8): 7.6 and 5.6 and 6
Late apoptosis, flow cytometry (CRBN−/− MOLM-13 cells; SI_Fig 5b, DMSO 1.3, 1.9, 2): 2 and 1.5 and 1.3
Early apoptosis, flow cytometry (CRBN−/− MOLM-13 cells; SI_Fig 5b, DMSO 4.6, 5.9, 7.6): 5.5 and 5.1 and 4.5
total apoptosis, flow cytometry (CRBN−/− MOLM-13 cells; [1]): 10.6 and 8.1 and 8.8
total apoptosis, flow cytometry (CRBN−/− MOLM-13 cells; SI_Fig 5c, DMSO 5.8, 7.8, 9.6): 7.5 and 6.5 and 5.9
CK1a Degradation Rate Constant (CK1α; 0.111 uM): 1.349 λ/hour
CK1a Percent Maximum Degradation (CK1α; 0.111 uM, listed as SJ10040): 87.09% and 81.49% and 82.97%
CK1a Degradation Rate Constant (CK1α; 0.333 uM): 1.489 λ/hour
CK1a Percent Maximum Degradation (CK1α; 0.333 uM, listed as SJ10040): 81.30% and 83.99% and 85.23%
CK1a Degradation Rate Constant (CK1α; 1 uM): 1.645 λ/hour
CK1a Percent Maximum Degradation (CK1α; 1 uM, listed as SJ10040): 85.32% and 82.59% and 87.28%
CK1a Degradation Rate Constant (CK1α; 3 uM): 1.768 λ/hour
CK1a Percent Maximum Degradation (CK1α; 3 uM, listed as SJ10040): 84.24% and 83.34% and 82.73%
CK1a Degradation Rate Constant (CK1α; 10 uM): 1.807 λ/hour
CK1a Percent Maximum Degradation (CK1α; 10 uM, replicates, listed as SJ10040): 89.47% and 88.18% and 86.50%
Dmax at 0.111 µM (CK1α): 85.1%
Dmax at 0.333 µM (CK1α): 88.2%
Dmax at 1 µM (CK1α): 87.9%
Dmax at 3 µM (CK1α): 87.3%
Dmax at 10 µM (CK1α; replicates): 89%
CK1α degradation depth (HiBiT) (CK1α; HEK293): near-complete degradation
DC50 (CK1α): 0.01 µM

O=C1CCC(N2Cc3cc(Nc4noc5ccccc45)ccc3C2=O)C(=O)N1 (stereo not drawn) [SJ3149]
Effect on MOLM-13 cell viability (cytotoxicity) (MOLM-13 cells; CTG 72 h): more robust effect on the viability of MOLM-13 cells
IC50 (MOLM-13 cells; Homo sapiens, MOLM-13, CTG 72 h, read-out: IC50, MOLM-13 cell growth/viability): 0.013 µM
Cell viability in MOLM-13 cells (MOLM-13 cells; SJ3149 series, Conc 0.000508): 101.693 and 103.275 and 101.343
Cell viability in MOLM-13 cells (MOLM-13 cells; SJ3149 series, Conc 0.00152416): 101.046 and 101.638 and 102.894
Cell viability in MOLM-13 cells (MOLM-13 cells; SJ3149 series, Conc 0.00457247): 93.8551 and 92.4498 and 91.2385
Cell viability in MOLM-13 cells (MOLM-13 cells; SJ3149 series, Conc 0.0137174): 62.1406 and 65.1592 and 63.0989
Cell viability in MOLM-13 cells (MOLM-13 cells; SJ3149 series, Conc 0.0411523): 25.3582 and 28.4617 and 24.9569
Cell viability in MOLM-13 cells (MOLM-13 cells; SJ3149 series, Conc 0.123457): 6.148 and 8.382 and 8.141
Cell viability in MOLM-13 cells (MOLM-13 cells; SJ3149 series, Conc 0.37037): 3.25 and 4.028 and 3.791
Cell viability in MOLM-13 cells (MOLM-13 cells; SJ3149 series, Conc 1.11111): 2.026 and 2.1314 and 2.9156
Cell viability in MOLM-13 cells (MOLM-13 cells; SJ3149 series, Conc 3.33333): 1.946 and 1.78 and 2.069
Cell viability in MOLM-13 cells (MOLM-13 cells; SJ3149 series, Conc 10): 0.7978 and 0.8668 and 1.097
Effect on viability of CRBN−/− cells (annexin-V) (CRBN−/− MOLM-13 cells): no effect on the viability
Late apoptosis, flow cytometry (CRBN−/− MOLM-13 cells; SI_Fig 4b, DMSO 3.1, 3.5, 3.3): 2.9 and 2.8 and 2.6
Early apoptosis, flow cytometry (CRBN−/− MOLM-13 cells; SI_Fig 4b, DMSO 7.1, 7.5, 7.8): 8.1 and 7.5 and 5.1
Late apoptosis, flow cytometry (CRBN−/− MOLM-13 cells; SI_Fig 5b, DMSO 1.3, 1.9, 2): 2.1 and 1.7 and 2.2
Early apoptosis, flow cytometry (CRBN−/− MOLM-13 cells; SI_Fig 5b, DMSO 4.6, 5.9, 7.6): 6.7 and 6.2 and 6.6
total apoptosis, flow cytometry (CRBN−/− MOLM-13 cells; [1]): 10.9 and 10.4 and 7.6
total apoptosis, flow cytometry (CRBN−/− MOLM-13 cells; SI_Fig 5c, DMSO 5.8, 7.8, 9.6): 8.8 and 7.9 and 8.7
CK1a Degradation Rate Constant (CK1α; 0.111 uM): 2.872 λ/hour
CK1a Percent Maximum Degradation (CK1α; 0.111 uM): 90.93% and 90.25% and 91.10%
CK1a Degradation Rate Constant (CK1α; 0.333 uM): 3.25 λ/hour
CK1a Percent Maximum Degradation (CK1α; 0.333 uM): 91.59% and 92.14% and 92.11%
CK1a Degradation Rate Constant (CK1α; 1 uM): 3.334 λ/hour
CK1a Percent Maximum Degradation (CK1α; 1 uM): 92.68% and 92.87% and 92.05%
CK1a Degradation Rate Constant (CK1α; 3 uM): 3.448 λ/hour
CK1a Percent Maximum Degradation (CK1α; 3 uM): 93.01% and 93.23% and 92.96%
CK1a Degradation Rate Constant (CK1α; 10 uM): 3.507 λ/hour
CK1a Percent Maximum Degradation (CK1α; 10 uM, replicates): 95.39% and 95.59% and 95.66%
Dmax at 0.111 µM (CK1α): 90.6%
Dmax at 0.333 µM (CK1α): 91.9%
Dmax at 1 µM (CK1α): 92.6%
Dmax at 3 µM (CK1α): 92.7%
Dmax at 10 µM (CK1α; replicates): 95.4%
CK1α degradation depth (HiBiT) (CK1α; HEK293): near-complete degradation
CK1α degradation rate relative to SJ0040 (CK1α; HEK293): ~2 fold
CK1α degradation rate relative to lenalidomide (CK1α; HEK293): ~10 fold
DC50 (CK1α): 0.006 µM
CK1α degradation within the first 30 min (CK1α; at most concentrations): > 50%
